Assay results reported in patent US20160039842A1, “OXAZOLO[5,4-C]QUINOLIN-2-ONE COMPOUNDS AS BROMODOMAIN INHIBITORS” (EPIGENETIX, INC., priority 2013, published 2016).

Biological target: T1, BRD4(BD1) (Homo sapiens, UniProt O60885)
T1 construct: purchased BPS Bioscience
Assay: In Vitro Bromodomain Inhibition Assay (AlphaLISA, H4-tetraacetyl peptide)
Assay type: binding
Settings: His-tagged BRD4(BD1) 200 nM, biotinylated H4-tetraacetyl peptide 200 nM, room temperature
Experimental: To measure activity of bromodomain inhibitors, a His-epitope tagged BRD4 BD149-170 was purchased from BPS Bioscience. BRD4 binding and inhibition was assessed by monitoring the engagement of biotinylated H4-tetraacetyl peptide (H4K5/8/12/16; AnaSpec #64989-025) with the target using the AlphaLISA technology (Perkin-Elmer). Specifically, in a 384 well OptiPlate, BRD4(BD1) (200 nM final) was pre-incubated with either DMSO (final 1.0% DMSO) or a compound dilution series in DMSO. All reagents were diluted in assay buffer containing 50 mM HEPES (pH 7.4), 100 mM NaCl, 0.1% (w/v) BSA, and 0.05% (w/v) CHAPS. After a 30 minute incubation at room temperature, H4 peptide was added (200 nM final) and the reaction was incubated an additional 30 minutes at room temperature. Alpha. streptavidin donor beads and AlphaLISA nickel chelate acceptor beads were then added to a final concentration of 10 ug/mL each. After one hour, equilibration plates were read on an Envision instrument and IC50s calculated using a four parameter non-linear curve fit.

SMILES	IC50 [nM]
CCOC(=O)c1nc2cc(-c3c(C)noc3C)c(OC)cc2c2c1oc(=O)n2Cc1ccccc1 [Example 1, Ethyl 1-benzyl-7-(3,5-dimethylisoxazol-4-yl)-8-methoxy-2-oxo-oxazolo[5,4-c]quinoline-4-carboxylate]	< 1000
COc1cc2c(cc1-c1c(C)noc1C)nc(CO)c1oc(=O)n(Cc3ccccc3)c12 [Example 33, 1-Benzyl-7-(3,5-dimethylisoxazol-4-yl)-4-(hydroxymethyl)-8-methoxy-oxazolo[5,4-c]quinolin-2-one]	< 1000
COCc1nc2cc(-c3c(C)noc3C)c(OC)cc2c2c1oc(=O)n2[C@H](C)c1ccccc1 [Example 38, 7-(3,5-Dimethylisoxazol-4-yl)-8-methoxy-4-(methoxymethyl)-1-[(1R)-1-phenylethyl]oxazolo[5,4-c]quinolin-2-one]	< 1000
CC[C@H](c1ccccc1)n1c(=O)oc2cnc3cc(-c4c(C)noc4C)c(OC)cc3c21 [Example 39, 7-(3,5-Dimethylisoxazol-4-yl)-8-methoxy-1-[(1R)-1-phenylpropyl]oxazolo[5,4-c]quinolin-2-one]	< 1000
COc1cc2c(cc1-c1c(C)noc1C)nc(CN1CCOCC1)c1oc(=O)n(Cc3ccccc3)c12 [Example 41, 1-Benzyl-7-(3,5-dimethylisoxazol-4-yl)-8-methoxy-4-(morpholinomethyl)oxazolo[5,4-c]quinolin-2-one]	< 1000
COc1cc2c(cc1-c1c(C)noc1C)nc(CN(C)C)c1oc(=O)n([C@H](C)c3ccccc3)c12 [Example 42, 4-(Dimethylaminomethyl)-7-(3,5-dimethylisoxazol-4-yl)-8-methoxy-1-[(1R)-1-phenylethyl]oxazolo[5,4-c]quinolin-2-one]	< 1000
COc1cc2c(cc1-c1c(C)noc1C)ncc1oc(=O)n([C@H](C)c3ccc(C#N)cc3)c12 [Example 43, 4-[(1R)-1-[7-(3,5-Dimethylisoxazol-4-yl)-8-methoxy-2-oxo-oxazolo[5,4-c]quinolin-1-yl]ethyl]benzonitrile]	< 1000
COc1cc2c(cc1-c1c(C)noc1C)ncc1oc(=O)n([C@H](C)c3cccc(C#N)c3)c12 [Example 44, 3-[(1R)-1-[7-(3,5-Dimethylisoxazol-4-yl)-8-methoxy-2-oxo-oxazolo[5,4-c]quinolin-1-yl]ethyl]benzonitrile]	< 1000
COc1cc2c(cc1-c1c(C)noc1C)ncc1oc(=O)n([C@H](C)c3cccc(Cl)c3)c12 [Example 45, 1-[(1R)-1-(3-Chlorophenyl)ethyl]-7-(3,5-dimethylisoxazol-4-yl)-8-methoxy-oxazolo[5,4-c]quinolin-2-one]	< 1000
COc1cc2c(cc1-c1c(C)noc1C)ncc1oc(=O)n(Cc3ccc(C)cc3)c12 [Example 46, 7-(3,5-Dimethylisoxazol-4-yl)-8-methoxy-1-(p-tolylmethyl)oxazolo[5,4-c]quinolin-2-one]	< 1000
CCNCc1nc2cc(-c3c(C)noc3C)c(OC)cc2c2c1oc(=O)n2Cc1ccccc1 [Example 52, 1-Benzyl-7-(3,5-dimethylisoxazol-4-yl)-4-(ethylaminomethyl)-8-methoxy-oxazolo[5,4-c]quinolin-2-one]	< 1000

Next, values leading:

IC50 [nM]	SMILES
< 1000	COc1cc2c(cc1-c1c(C)noc1C)ncc1oc(=O)n(Cc3ccccc3)c12 [Example 2, 1-Benzyl-7-(3,5-dimethylisoxazol-4-yl)-8-methoxy-oxazolo[5,4-c]quinolin-2-one]
< 1000	COc1cc2c(cc1-c1c(C)noc1C)ncc1oc(=O)n([C@H](C)c3ccccn3)c12 [Example 3, 7-(3,5-Dimethylisoxazol-4-yl)-8-methoxy-1-[(1R)-1-(2-pyridyl)ethyl]oxazolo[5,4-c]quinolin-2-one]
< 1000	COc1cc2c(cc1-c1c(C)noc1C)ncc1oc(=O)n([C@H](C)c3ccccc3)c12 [Example 12A, 7-(3,5-Dimethylisoxazol-4-yl)-8-methoxy-1-[(1R)-1-phenylethyl]oxazolo[5,4-c]quinolin-2-one]
< 1000	COc1cc2c(cc1-c1c(C)noc1C)ncc1oc(=O)n(Cc3ccccc3Cl)c12 [Example 18, 1-[(2-Chlorophenyl)methyl]-7-(3,5-dimethylisoxazol-4-yl)-8-methoxy-oxazolo[5,4-c]quinolin-2-one]
< 1000	CCOC(=O)c1nc2cc(-c3c(C)noc3C)c(OC)cc2c2c1oc(=O)n2[C@H](C)c1ccccc1 [Example 34, Ethyl 7-(3,5-Dimethylisoxazol-4-yl)-8-methoxy-2-oxo-1-[(1R)-1-phenylethyl]oxazolo[5,4-c]quinoline-4-carboxylate]
< 1000	COc1cc2c(cc1-c1c(C)noc1C)nc(CO)c1oc(=O)n([C@H](C)c3ccccc3)c12 [Example 35, 7-(3,5-Dimethylisoxazol-4-yl)-4-(hydroxymethyl)-8-methoxy-1-[(1R)-1-phenylethyl]oxazolo[5,4-c]quinolin-2-one]
< 1000	COc1cc2c(cc1-c1c(C)noc1C)nc(C)c1oc(=O)n([C@H](C)c3ccccc3)c12 [Example 36, 7-(3,5-Dimethylisoxazol-4-yl)-8-methoxy-4-methyl-1-[(1R)-1-phenylethyl]oxazolo[5,4-c]quinolin-2-one]
< 1000	COc1cc2c(cc1-c1c(C)noc1C)ncc1oc(=O)n(Cc3c(C)cccc3F)c12 [Example 37, 7-(3,5-Dimethylisoxazol-4-yl)-1-[(2-fluoro-6-methyl-phenyl)methyl]-8-methoxy-oxazolo[5,4-c]quinolin-2-one]
< 1000	COc1cc2c(cc1-c1c(C)noc1C)ncc1oc(=O)n([C@H](C)c3ccc(Cl)cc3)c12 [Example 40, 1-[(1R)-1-(4-Chlorophenyl)ethyl]-7-(3,5-dimethylisoxazol-4-yl)-8-methoxy-oxazolo[5,4-c]quinolin-2-one]
< 1000	COc1cc2c(cc1-c1c(C)noc1C)nc(CN(C)C)c1oc(=O)n(Cc3ccccc3)c12 [Example 47, 1-Benzyl-4-(dimethylaminomethyl)-7-(3,5-dimethylisoxazol-4-yl)-8-methoxy-oxazolo[5,4-c]quinolin-2-one]
< 1000	CCN(Cc1nc2cc(-c3c(C)noc3C)c(OC)cc2c2c1oc(=O)n2Cc1ccccc1)C(C)=O [Example 48, N-[[1-Benzyl-7-(3,5-dimethylisoxazol-4-yl)-8-methoxy-2-oxo-oxazolo[5,4-c]quinolin-4-yl]methyl]-N-ethyl-acetamide]
< 1000	COc1cc2c(cc1-c1c(C)noc1C)ncc1oc(=O)n(Cc3ccccc3S(C)(=O)=O)c12 [Example 49, 7-(3,5-Dimethylisoxazol-4-yl)-8-methoxy-1-[(2-methylsulfonylphenyl)methyl]oxazolo[5,4-c]quinolin-2-one]
< 1000	COc1cc2c(cc1-c1c(C)noc1C)ncc1oc(=O)n(Cc3ccccc3C#N)c12 [Example 50, 2-[[7-(3,5-Dimethylisoxazol-4-yl)-8-methoxy-2-oxo-oxazolo[5,4-c]quinolin-1-yl]methyl]benzonitrile]
< 1000	COc1cc2c(cc1-c1c(C)noc1C)nc(C(=O)O)c1oc(=O)n([C@H](C)c3ccccc3)c12 [Example 51, 7-(3,5-Dimethylisoxazol-4-yl)-8-methoxy-2-oxo-1-[(1R)-1-phenylethyl]oxazolo[5,4-c]quinoline-4-carboxylic acid]
< 1000	COc1cc2c(cc1-c1c(C)noc1C)ncc1oc(=O)n(Cc3ccc(OC(F)(F)F)cc3)c12 [Example 54, 7-(3,5-Dimethylisoxazol-4-yl)-8-methoxy-1-[[4-(trifluoromethoxy)phenyl]methyl]oxazolo[5,4-c]quinolin-2-one]
